Consider six compounds from ChEMBL document CHEMBL1127792, “Total synthesis and biological properties of novel antineoplastic (chloromethyl)furanoindolines: an asymmetric hydroboration mediated synthesis of the alkylation subunits” (J Med Chem, 1994).

Data set [1] relates to T222. Kind of data set: Concentration for 50% growth inhibition relative to untreated control in the human lung epidermoid carcinoma (T222) cell line; Not active. In kind it is functional, cell-based.
Data set [2] has as its system T222. Kind of data set: Concentration for 50% growth inhibition relative to untreated control in the human lung epidermoid carcinoma (T222) cell line. The class given is functional, cell-based.
Data set [3] relates to Nucleic Acid. Kind of data set: Relative concentration of compound for alkylation of w794 DNA is detected at incubation condition of 4 degrees C for 24 hr; Range is 0.01-0.006. In kind it is functional.
The subject of data set [4] is Mus musculus. As to the kind of experiment: Percent inhibition against [3H]leucine uptake at a dose of 0.2 mg/Kg in a mouse bearing a T222 tumor burden. In kind it is functional.
Data set [5] has as its system Mus musculus. Kind of data set: Percent inhibition against [3H]-Leucine uptake at a dose of 0.1 mg/Kg in a mouse bearing a T222 tumor burden. The class given is functional.
The test system of data set [6] is Nucleic Acid. As to the kind of experiment: Relative concentration of compound for alkylation of w794 DNA detected at incubation condition of 4 degrees C for 24 hr; Range is 1.0-0.2. In kind it is functional.
Data set [7] relates to Mus musculus. As to the kind of experiment: Acute toxicity was measured as ratio of number of mice that died to the 5 mice in the test group on a dose of 0.05 mg/Kg. The class given is organism-based. As to conditions: in vivo; call rule not given here.
For data set [8], the system named is Mus musculus. As to the kind of experiment: Acute toxicity was measured as ratio of number of mice that died to the 5 mice in test group on a dose of 0.4 mg/Kg. The class given is organism-based. As to conditions: in vivo.
The subject of data set [9] is Mus musculus. As to the kind of experiment: Acute toxicity was measured as ratio of number of mice that died to the 5 mice in test group on a dose of 0.2 mg/Kg. In kind it is organism-based. The settings on record: in vivo.
Data set [10] deals with Mus musculus. As to the kind of experiment: Percent inhibition against [3H]leucine uptake at a dose of 0.05 mg/Kg in mouse bearing a T222 tumor burden. In kind it is functional.
The test system of data set [11] is Mus musculus. Kind of data set: Acute toxicity was measured as ratio of number of mice that died to the 5 mice in test group on a dose of 0.1 mg/Kg. The class given is organism-based. The settings on record: in vivo.

Converted amounts (≈) assume the structure as drawn.

The term IC50 denotes the concentration that gives 50% inhibition. Low readings indicate greater potency in that assay, high ones weaker potency in that assay. As to `Cc1coc2c(O)cc3c(c12)C(C)(C)CN3C(=O)c1cc2cc(NC(=O)c3cc4ccccc4[nH]3)ccc2[nH]1`, the IC50 result in the data set on T222 [1] was “Not Active”.
As to `Cc1coc2c(O)cc3c(c12)[C@H](CCl)CN3C(=O)c1cc2cc(NC(=O)c3cc4ccccc4s3)ccc2[nH]1`, the IC50 with T222 [2] was 0.2 ng/mL (≈ 0.36 nM).
`Cc1coc2c(O)cc3c(c12)[C@H](CCl)CN3C(=O)c1cc2cc(NC(=O)c3cc4ccccc4s3)ccc2s1` came in with an IC50 with T222 [2] of 0.2 ng/mL (≈ 0.349 nM).
As for `Cc1coc2c(O)cc3c(c12)[C@@H](CCl)CN3C(=O)c1cc2cc(NC(=O)c3cc4ccccc4[nH]3)ccc2[nH]1`, the Efficiency in the data set on Nucleic Acid [3] stood at 0.006.
Broadly, the inhibition in vivo is the relative decrease from the control value, in per cent. For the compound `Cc1coc2c(O)cc3c(c12)C(CCl)CN3C(=O)c1cc2cc(NC(=O)c3cc4ccccc4[nH]3)ccc2[nH]1` (single isomer, unassigned), the inhibition in vivo at 0.2 mg/kg in the data set with Mus musculus [4] is 85%. This compound returned an inhibition in vivo at 0.1 mg/kg with Mus musculus [5] of 73%. The compound also yielded an Efficiency in the data set on Nucleic Acid [6] of 0.2. The Toxicity in the data set with Mus musculus [7] was 0; in the data set on Mus musculus [8] it was 5; with Mus musculus [9], 1; in the data set on Mus musculus [11] it was 0. The same compound returned an inhibition in vivo at 0.05 mg/kg in the data set with Mus musculus [10] of 68%.
`CC[C@]1(O)C[C@@H]2CN(CCc3c([nH]c4ccccc34)[C@@](C(=O)OC)(c3cc4c(cc3OC)N(C)[C@H]3[C@@](O)(C(=O)NN)[C@H](O)[C@]5(CC)C=CCN6CC[C@]43[C@@H]65)C2)C1` [DESACETYLVINBLASTINEHYDRAZIDE]: the concentration for half-maximal inhibition (IC50) in the data set with T222 [2] worked out at 3 ng/mL (≈ 3.9 nM).
